# Reference: PMC5641092 (Oncotarget, 2017)
# Where two headings read alike, the source gives them in different places. Residues, ends and D or L forms follow the SMILES beside them.
# Tests used:
# [1] = biological target: T1, pepsin from porcine gastric mucosa (Sus scrofa, UniProt P00791); experiment: Peptide stability in presence of pepsin at pH 2 (SDS-PAGE); format: in vitro ADME; details: pepsin in buffer pH 2, peptide:pepsin 10:1 weight ratio, 37°C, 1, 2 and 7 days
# T1 construct: pepsin from porcine gastric mucosa (Sigma-Aldrich, Deisenhofen, Germany); purchased Sigma-Aldrich, Deisenhofen, Germany; host or cells: porcine gastric mucosa
# Experimental: (§1) Peptide stability was tested in presence of bovine serum albumin (BSA, Sigma-Aldrich, Deisenhofen, Germany), fetal bovine serum (FBS, Gibco®), buffer pH 2 (30 mM citric acid/HCl, 60 mM NaCl), pH 10 (10 mM Tris/NaOH), and pepsin from porcine gastric mucosa (Sigma-Aldrich, Deisenhofen, Germany) in buffer pH 2. […] After the given time points aliquots were taken and diluted with electrophoresis loading buffer (2.5% SDS) heated for 5 minutes at 95°C and analyzed by SDS-gel electrophoreses (BioRad, Mini-PROTEAN Tetra System). As standard the Ultra-low Range Molecular Weight Marker M3546 (Sigma-Aldrich, Deisenhofen, Germany) was used. For analysis of binding to BSA after 7 days respective samples were taken and loaded on Amicon Ultra-0.5 ml Centrifugal Filters (Ultracel-10K) (Merck Millipore, Tullagreen, IRL). After centrifugation (14.000g, 30 minutes, 4°C) the filtrate was analyzed for amount of non-BSA-bound peptide by measurement of UV-absorbance of tryptophan at 280 nm. The filtrate (free) peptide amount was corrected with the peptide loss during the filtration process by a control experiment with defined peptide amount.
# [2] = Complete blood count of xenografted mice; format: in vivo, FOXN1 mice; details: 7 mice
# Experimental: 20 FOXN1 mice (Charles River Laboratories, Sulzfeld, Germany) were xenotransplanted with melanoma cells A375 subcutaneously in the right flank. The tumor was grown to a maximum length and width of 3 mm before peptide treatment was started (day 0). […] Treatment occurred at days 0, 1, 6, 7, 8, 11 and 12 in 7 single doses by injection into the tumor. The total dose per mouse was 1.67 mg. The single doses applied at day 0 and 1 contained 0.33 mg peptide and the residual doses contained 0.20 mg. The tumor sizes were measured with manual calipers during the treatment time span. At day 15 the mice were sacrificed and the tumors were isolated and examined together with the organs of the mice after paraffin embedment and staining of four-micron sections with hematoxylin and eosin. All animal work was done in accordance with the protocol approved by the institutional animal care and use committee at the Austrian Federal Ministry for Science and Research (BMWF) (vote 66.010/0160-II/3b/2012).
# [3] = biological target: T2, bovine serum albumin (BSA) (Bos taurus, UniProt P02769); experiment: Peptide stability in presence of BSA (SDS-PAGE); format: in vitro ADME; details: BSA 1:1 weight ratio, 37°C, 1, 6 and 7 days
# T2 construct: purchased Sigma-Aldrich, Deisenhofen, Germany
# Experimental: (§2) Peptide stability was tested in presence of bovine serum albumin (BSA, Sigma-Aldrich, Deisenhofen, Germany), fetal bovine serum (FBS, Gibco®), buffer pH 2 (30 mM citric acid/HCl, 60 mM NaCl), pH 10 (10 mM Tris/NaOH), and pepsin from porcine gastric mucosa (Sigma-Aldrich, Deisenhofen, Germany) in buffer pH 2. Therefore peptide samples were incubated in presence of 1:1 weight ratios (10:1 in presence of pepsin) with the mentioned components or in presence of buffer (pH 2 or 10) for 1 day, 6 days and 7 days at 37°C. After the given time points aliquots were taken and diluted with electrophoresis loading buffer (2.5% SDS) heated for 5 minutes at 95°C and analyzed by SDS-gel electrophoreses (BioRad, Mini-PROTEAN Tetra System). As standard the Ultra-low Range Molecular Weight Marker M3546 (Sigma-Aldrich, Deisenhofen, Germany) was used. For analysis of binding to BSA after 7 days respective samples were taken and loaded on Amicon Ultra-0.5 ml Centrifugal Filters (Ultracel-10K) (Merck Millipore, Tullagreen, IRL). After centrifugation (14.000g, 30 minutes, 4°C) the filtrate was analyzed for amount of non-BSA-bound peptide by measurement of UV-absorbance of tryptophan at 280 nm. The filtrate (free) peptide amount was corrected with the peptide loss during the filtration process by a control experiment with defined peptide amount.
# [4] = Side effects after subcutaneous injection of peptide into the flank; format: in vivo, mice
# Experimental: To test further potential side effects of the peptide in vivo, 3 mice were injected subcutaneously into the flank with 9 doses of peptide to a total amount of 0.68 mg per mouse over 3 weeks. Then the skin at injection site, liver, kidney, spleen, and weight were checked for abnormal changes (Supplementary Figure 1, liver and kidney).
# [5] = Peptide stability in presence of fetal bovine serum (SDS-PAGE); format: in vitro ADME; details: FBS 1:1 weight ratio, 37°C
# Experimental: as §1
# [6] = system: normal human dermal fibroblasts NHDF; experiment: MTS cell viability assay, NHDF; format: cell-based; details: 24 h, at least three experiments
# Excerpt: The human malignant melanoma cell line A375 was purchased from ATCC (American Type Culture Collection, Manassas, Virginia, US) and cultured in Dulbecco's Modified Eagle Medium with GlutaMAX™ (DMEM, Gibco®, Thermo Fisher Scientific, USA) with addition of 10% FBS (Gibco®). Melanoma cell lines from primary (SBcl-2) and metastatic (WM164) lesions (kindly provided by Dr. Meenhard Herlyn, the Wistar Institute, Philadelphia, PA) and newly established primary cells MUG-Mel1 (manuscript Rinner et al., in preparation) were maintained in RPMI 1640 medium with GlutaMAX™ (Gibco®, Thermo Fisher Scientific, USA) supplemented with 2% FBS (fetal bovine serum; Gibco®). Normal human dermal fibroblasts NHDF, used as healthy control cells, purchased from PromoCell GmbH were cultured in fibroblast growth medium 2 (PromoCell GmbH). All cells were kept in a 5% CO2 atmosphere at 37°C. […]
# MTS viability assay-spectroscopy—Cell proliferation was measured by using CellTiter 96® Aqueous One Solution Cell Proliferation assay (Promega). […] The quantity of the formazan product as measured by the amount of 490 nm absorbance is directly proportional to the number of living cells in culture. Data are calculated as a percentage of the control (untreated) samples and represent the average of three wells in one experiment which was repeated three times per cell line.
# [7] = system: human melanoma A375 xenografts; experiment: Mouse xenografts of human melanoma A375, intratumoral peptide treatment; format: in vivo, FOXN1 mice; details: day 1 and day 3, after first and second dose of 0.33 mg
# Experimental: 20 FOXN1 mice (Charles River Laboratories, Sulzfeld, Germany) were xenotransplanted with melanoma cells A375 subcutaneously in the right flank. The tumor was grown to a maximum length and width of 3 mm before peptide treatment was started (day 0). 9 mice were treated with peptide dissolved in buffer PBS (P), 5 mice were treated with pure buffer (C+), 5 mice were untreated (C-). Treatment occurred at days 0, 1, 6, 7, 8, 11 and 12 in 7 single doses by injection into the tumor. The total dose per mouse was 1.67 mg. The single doses applied at day 0 and 1 contained 0.33 mg peptide and the residual doses contained 0.20 mg. The tumor sizes were measured with manual calipers during the treatment time span. […]
# The tumor sections of peptide treated and untreated mice were evaluated for the following: tumor cell types (spindle, epithelioid, or mixed), tumor size, present/ absent necrosis or fibrosis. […] We performed Ki67 staining (Ki-67 rabbit primary antibody, 30-9; ready to use with Ventana iView DAB detection kit; Pretreatment: CC1mild; All Ventana Medical Systems, Inc, Tucson, Arizona).
# All values were presented as the mean ± SEM. In vivo data were analyzed by using the unpaired student's t test, p-values less than 0.001 were considered statistically significant.
# [8] = biological target: T2, bovine serum albumin (BSA); experiment: Binding to BSA (centrifugal filtration, UV 280 nm); details: after 7 days of incubation at 37°C, Amicon Ultracel-10K filtration, corrected for filtration loss
# Experimental: as §2
# [9] = system: malignant melanoma; details: cited from earlier work; for response rates: malignant melanoma patients, ref [26], [27]
# Excerpt: Though, the specific target PS has been described to be exposed by numerous cancer types, we decided to focus on treatment of a cancer type with poor prognosis and limited therapy options, like malignant melanoma. […] In 1960s the risk to develop malignant melanoma was 1:600, whereas today it is 1:75 to 1:100 [23]. Further it exerts high tendency to metastasize and is mainly chemo-resistant. Thus the long-standing applied treatment with the methylating agent dacarbazine or its oral analogue temozolomide only yie ...
# [10] = 3 mice, 9 s.c. doses, total 0.68 mg per mouse over 3 weeks
# [11] = vemurafenib compared to dacarbazine, ref [30]
# T2 sequence (P02769 25-607): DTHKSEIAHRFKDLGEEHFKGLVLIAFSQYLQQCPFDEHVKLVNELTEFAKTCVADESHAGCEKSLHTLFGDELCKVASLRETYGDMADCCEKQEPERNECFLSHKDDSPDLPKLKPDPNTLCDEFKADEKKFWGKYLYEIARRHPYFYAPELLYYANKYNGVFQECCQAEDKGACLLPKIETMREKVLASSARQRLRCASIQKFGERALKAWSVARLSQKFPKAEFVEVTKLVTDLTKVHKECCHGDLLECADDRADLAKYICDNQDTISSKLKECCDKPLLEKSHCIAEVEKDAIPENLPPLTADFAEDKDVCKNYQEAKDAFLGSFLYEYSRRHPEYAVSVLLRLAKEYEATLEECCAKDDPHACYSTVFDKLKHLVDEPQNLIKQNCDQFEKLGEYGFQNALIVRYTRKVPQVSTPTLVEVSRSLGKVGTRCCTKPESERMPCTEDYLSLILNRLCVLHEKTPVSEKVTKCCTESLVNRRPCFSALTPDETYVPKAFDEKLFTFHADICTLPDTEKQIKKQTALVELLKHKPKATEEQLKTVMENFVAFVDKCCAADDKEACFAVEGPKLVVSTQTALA
# T1 sequence (P00791 60-385): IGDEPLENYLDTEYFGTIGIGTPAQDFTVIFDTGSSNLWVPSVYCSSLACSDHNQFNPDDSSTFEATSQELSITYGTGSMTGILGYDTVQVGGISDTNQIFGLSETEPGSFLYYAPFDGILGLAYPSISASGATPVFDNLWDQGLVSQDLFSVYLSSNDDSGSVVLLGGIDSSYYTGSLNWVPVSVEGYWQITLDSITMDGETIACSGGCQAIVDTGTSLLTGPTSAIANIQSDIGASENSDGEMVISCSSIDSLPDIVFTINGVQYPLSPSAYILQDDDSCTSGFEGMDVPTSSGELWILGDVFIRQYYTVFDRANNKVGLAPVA
molecule,measurement,setting,value
CC[C@H](C)[C@H](NC(=O)[C@H](CCCNC(=N)N)NC(=O)[C@@H](NC(=O)[C@H](CCCNC(=N)N)NC(=O)[C@H](CCCNC(=N)N)NC(=O)[C@@H]1CCCN1C(=O)[C@H](CCCNC(=N)N)NC(=O)[C@H](CCCNC(=N)N)NC(=O)[C@@H](NC(=O)[C@H](CCCNC(=N)N)NC(=O)[C@@H](NC(=O)[C@H](CCCNC(=N)N)NC(=O)[C@H](Cc1c[nH]c2ccccc12)NC(=O)[C@@H]1CCCN1)[C@@H](C)CC)[C@@H](C)CC)[C@@H](C)CC)C(=O)N[C@@H](CCCNC(=N)N)C(=O)N[C@@H](Cc1c[nH]c2ccccc12)C(=O)N1CCC[C@H]1C(N)=O [R-DIM-P-LF11-334] (H-PWRIRIRRPRRIRIRWP-NH2),cleavage in presence of pepsin,[1],no visible cleavage
same,Bas,[2]; +P,0.68%
same,EVB-CV,[2]; +P,19.44%
same,EVB-SD,[2]; +P,35.95 fL
same,MERY,[2]; +P,0.34%
same,MTHR,[2]; +P,8.13%
same,Medn,[2]; +P,4.14 fL
same,Mod,[2]; +P,3.05 fL
same,Other (leukocytes),[2]; +P,2.30%
same,TKT,[2]; +P,0.43%
same,μERY,[2]; +P,16.00%
same,μTHR,[2]; +P,16.54%
same,Mon,"[2]; +P, normal range 1-5",4.46%
same,MPV,"[2]; +P, normal range 3-8",5.91 fL
same,TVB,"[2]; +P, normal range 6-10",10.10
same,Erythrocytes ERY,"[2]; +P, normal range 6-11",8.53 10^6/μl
same,MCH,"[2]; +P, normal range 13-22",16.5 pg
same,Hb,"[2]; +P, normal range 14-18",14.06 g/dL
same,MCHC,"[2]; +P, normal range 24-40",32.85 g/dL
same,Hct,"[2]; +P, normal range 35-45",42.81%
same,MCV,"[2]; +P, normal range 35-50",50.18 fL
same,Lym,"[2]; +P, normal range 70-81, marked ↑",82.28%
same,Thrombocytes THR,"[2]; +P, normal range 100-600, marked ↑",705.00 10^3/μl
same,Eos,"[2]; +P, normal range <10",1.33%
same,Leukocytes LEU,"[2]; peptide treated xenograft mice (+P), normal range 4-10",6.13 10^3/μl
same,degradation of peptide by BSA,[3],no degrading effect
same,inflammation after subcutaneous injection,[4]; [10],No inflammation occurred
same,"organs (skin at injection site, liver, kidney, spleen)",[4]; [10],unsuspicious
same,weight gain,[4]; [10],normal
same,effect in liver and kidney (H&E sections),"[4]; s.c. treatment, 9 doses, Supplementary Figure 1",No effect
same,incubation time in FBS before amount of peptide is reduced,[5],more than 1 day
same,peptide remaining in FBS after 6 days,[5],no peptide was detectable
same,period of stability / complete activity in presence of FBS (blood components),[5],24 h
same,fraction of peptide left in FBS after 2 days,[5]; data not shown,about 1/3
same,LC50 MTS,[6],> 90 µM
same,local reaction at tumor after intratumoral injection,[7],in some cases a wound developed
same,binding of the peptide to BSA,[8],approximately 75%
CN(C)/N=N/c1[nH]cnc1C(N)=O [dacarbazine],response rates,[9],about 15%
same,"percentage of 5 years survival, solely dacarbazine",[9]; ref [29],8%
same,median survival,[9]; [11],9.7 months
Cn1nnc2c(C(N)=O)ncn2c1=O [temozolomide],response rates,[9],about 15%
CCCS(=O)(=O)Nc1ccc(F)c(C(=O)c2c[nH]c3ncc(-c4ccc(Cl)cc4)cc23)c1F [vemurafenib],median survival,[9]; [11],13.6 months
"ipilimumab: immunotherapy approved by the FDA in 2011, blocks the T-cell inhibition of CTLA-4",median survival,"[9]; melanoma patients, ref [28]",12.7 months
same,"percentage of 5 years survival, in combination with dacarbazine","[9]; patients treated with ipilimumab in combination with dacarbazine, ref [29]",18%
